From patent US8664249B2, “Tetrasubstituted benzenes” (EnVivo Pharmaceuticals, Inc., priority 2007, dated 2014)

Key:
γ-secretase = γ-secretase (Homo sapiens, UniProt P49768); assay: Aβ42 lowering in HEK-293 cells overexpressing APP (ELISA of conditioned medium); format: cell-based
Procedure: Transfected cells overexpressing β-APP or its equivalent producing the Aβ peptide can be used to monitor the effects of synthetic compounds on the production of Aβ.
To analyze a compound's effects on the concentrations of the various products of the γ-secretase cleavage activity, the Aβ peptides, various methods known to a person skilled in the art are available.
Cells were grown to approximately 70-80% confluency subsequent to the addition of test compounds. The growth media was aspirated or removed, the cells washed, and replaced with 100 μl of compound, appropriately diluted in serum free media. The plates are then incubated for 16-18 hours at 37° C.
Conditioned Medium samples are removed for analysis/quantitation of the various Aβ peptide levels by differential ELISA's as described in accompanying instructions to the kits.

Aβ = assay: In vivo Aβ lowering in C57BL/6 mice (FIG. 1); set-up: species or system mouse; details: one dose at 30 mg/kg in Solutol HS 15:Ethanol:Water (15:10:75), Aβ measured at 3 hours
From the text: Practitioners will also know that similar methods can also be applied to other species such as mice (including transgenic strains such as Tg2576), guinea pig, dog and monkey.

Row | melting point | SMILES | other results
1 | 110 to 111 °C | CC(C)CC(C(=O)O)c1cc(OCC2CC2)c(-c2ccc(C(F)(F)F)cc2)cc1F (centres unmarked) [Example 724, 2-(2-cyclopropylmethoxy-5-fluoro-4′-trifluoromethyl-biphenyl-4-yl)-4-methyl-pentanoic acid] | 
2 | 148 to 149 °C | CC(C)CC(C(=O)O)c1cc(-c2ccc(C(F)(F)F)cc2)c(OCC2CC2)c(C(F)(F)F)c1 (centres unmarked) [Example 1055, 2-(6-Cyclopropylmethoxy-5,4′-bis-trifluoromethyl-biphenyl-3-yl)-4-methyl-pentanoic Acid] | 
3 | 115 to 116 °C | CC(C)CC(C(=O)O)c1cc(Cl)c(-c2ccc(C(F)(F)F)cc2)c(OCC2CC2)c1 (centres unmarked) [Example 1904, 2-(2-Chloro-6-cyclopropylmethoxy-4′-trifluoromethyl-biphenyl-4-yl)-4-methyl-pentanoic acid] | 

The remaining lines, values behind:

Row | SMILES | melting point | other results
4 | CC(C)CC(C(=O)O)c1cc(Cl)c(-c2ccc(Cl)c(Cl)c2)c(OCC2CC2)c1 (centres unmarked) [Example 3201, 4-Methyl-2-(2,3′,4′-trichloro-6-cyclopropylmethoxy-biphenyl-4-yl)-pentanoic acid] | 118 to 119 °C | 
5 | O=C(O)C1(c2cc(Cl)c(-c3ccc(C(F)(F)F)cc3)c(OCC(F)(F)F)c2)CCCC1 [Example 1837, 1-(2-chloro-6-(2,2,2-trifluoroethoxy)-4′-(trifluoromethyl)biphenyl-4-yl)cyclopentanecarboxylic acid] |  | EC50 (γ-secretase): < 1000 nM
6 | CC(C)CC(C(=O)O)c1cc(Cl)c(-c2ccc(Cl)cc2)c(OCC2CC2)c1 (centres unmarked) [Example 3200, 2-(2,4′-Dichloro-6-cyclopropylmethoxy-biphenyl-4-yl)-4-methyl-pentanoic acid] | 52 to 53 °C | 
7 | CC(C)c1ccc(-c2cc(C(CC3CC3)C(=O)O)cc(Cl)c2OCC(F)(F)F)cc1 (centres unmarked) [Example 1301, 2-(5-chloro-4′-isopropyl-6-(2,2,2-trifluoroethoxy)biphenyl-3-yl)-3-cyclopropylpropanoic acid] |  | effect on Aβ after administration (Aβ): desirable effect on Aβ
8 | CC(C)CC(C(=O)O)c1cc(OCC2CC2)c(-c2ccc3nonc3c2)cc1F (centres unmarked) [Example 754, 2-(4-(benzo[c][1,2,5]oxadiazol-5-yl)-5-(cyclopropylmethoxy)-2-fluorophenyl)-4-methylpentanoic acid] | 110 to 111 °C | 
